Results published in article PMC3968008 (PLoS ONE, 2014).
≈ marks a conversion by molar mass, not a printed value. Square brackets hold non-standard residues; d marks the D form. Peptide text beside a SMILES is read from it.

Experiments:
Candida krusei = assay: microbe, parasite or virus in culture; type: cell-based; settings: 48 h
Protocol: (§1) Antimicrobial activity of the peptides was evaluated against Escherichia coli JCM 5491, Pseudomonas aeruginosa JCM 6119, Staphylococcus aureus JCM2874, Salmonella Typhimurium JCM1652, Acinetobacter baumannii JCM6841, Bacteroides fragilis JCM11019, Fusobacterium nucleatum JCM11025, Penicillium glabrum JCM22534, Fusarium solani JCM11383, Alternaria alternata JCM5800 (RIKEN, A research institution for basic and applied science in Japan), Micrococcus luteus NBRC13867, Bacillus subtilis NBRC3134, Propionibacterium acnes NBRC107605, Trichophyton mentagrophytes NBRC6124, Trichophyton rubrum NBRC9185, Candida krusei NBRC1395 (National Institute of Technology and Evaluation, Tokyo, Japan), Salmonella Enteritidis IID604 (The Institute of Medical Science, The University of Tokyo, Tokyo, Japan). Additionally, the clinical isolates (Drug-sensitive/resistant Pseudomonas aeruginosa and Staphylococcus aureus, Osaka University Hospital) and multidrug-resistant Acinetobacter baumannii (ATCC BAA-1605) were used. […] Serial two-fold dilutions of peptide were added to 0.1 ml of medium containing each type of bacteria and fungi at concentrations of 0.4×10^4 – 5×10^4 CFU/ml. The plates were incubated at 37°C with vigorous shaking for 24 or 48 hours. The MICs were determined as the lowest concentrations of peptide that inhibited visible bacterial growth.

[1] = peptide 500 μg/ml, 37°C, 3 or 10 minutes, acetonitrile/0.1% trifluoroacetate precipitation, HPLC, N = 2 (Fig. 1E)
Protocol: In vitro stability studies were performed by incubating the peptide with rat or human serum. Human sera (Pool of donors, 5 men and 5 women) were commercially purchased from KAC (Kyoto, Japan), which has been permitted only for experiment. We don't use the human biological specimens without the documented informed consent. Rat sera were collected from rats. The peptide (500 μg/ml) was added to serum (300 μL) and incubated at 37°C. A part of samples (90 μL) were taken, and the proteins were precipitated with acetonitrile containing 0.1% trifluoroacetate (200 μL). The precipitate was separated by centrifugation. The supernatants were analyzed by high-performance liquid chromatography (HPLC).

Micrococcus luteus = assay: microbe, parasite or virus in culture; type: cell-based; settings: 48 h
Protocol: as §1

S. aureus (ATCC29213) = assay: microbe, parasite or virus in culture; type: cell-based, Staphylococcus aureus; settings: ATCC29213, 48 h
Protocol: as §1

Salmonella Enteritidis = assay: microbe, parasite or virus in culture; type: cell-based; settings: 48 h
Protocol: (§2) Antimicrobial activity of the peptides was evaluated against Escherichia coli JCM 5491, Pseudomonas aeruginosa JCM 6119, Staphylococcus aureus JCM2874, Salmonella Typhimurium JCM1652, Acinetobacter baumannii JCM6841, Bacteroides fragilis JCM11019, Fusobacterium nucleatum JCM11025, Penicillium glabrum JCM22534, Fusarium solani JCM11383, Alternaria alternata JCM5800 (RIKEN, A research institution for basic and applied science in Japan), Micrococcus luteus NBRC13867, Bacillus subtilis NBRC3134, Propionibacterium acnes NBRC107605, Trichophyton mentagrophytes NBRC6124, Trichophyton rubrum NBRC9185, Candida krusei NBRC1395 (National Institute of Technology and Evaluation, Tokyo, Japan), Salmonella Enteritidis IID604 (The Institute of Medical Science, The University of Tokyo, Tokyo, Japan). […] Serial two-fold dilutions of peptide were added to 0.1 ml of medium containing each type of bacteria and fungi at concentrations of 0.4×10^4 – 5×10^4 CFU/ml. The plates were incubated at 37°C with vigorous shaking for 24 or 48 hours. The MICs were determined as the lowest concentrations of peptide that inhibited visible bacterial growth.

Alternaria alternata = assay: microbe, parasite or virus in culture; type: cell-based; settings: 48 h
Protocol: as §1

[2] = tested on: Carbapenem-resistant Pseudomonas aeruginosa; type: cell-based; settings: 48 h
Protocol: as §2

Acinetobacter baumannii = type: cell-based; settings: 48 h
Protocol: as §2

Salmonella Typhimurium = assay: microbe, parasite or virus in culture; type: cell-based; settings: murium, 48 h
Protocol: as §2

Trichophyton rubrum = assay: microbe, parasite or virus in culture; type: cell-based; settings: 48 h
Protocol: as §1

Bacteroides fragilis = assay: microbe, parasite or virus in culture; type: cell-based; settings: 48 h
Protocol: as §1

E. coli (ATCC25922) = assay: microbe, parasite or virus in culture; type: cell-based, Escherichia coli; settings: ATCC25922, 48 h
Protocol: as §1

Fusarium solani = assay: microbe, parasite or virus in culture; type: cell-based; settings: 48 h
Protocol: as §1

[3] = tested on: Trichophyton mentagrophytes; assay: microbe, parasite or virus in culture; type: cell-based; settings: 48 h
Protocol: as §1

[4] = tested on: Multidrug-resistant Acinetobacter baumannii; type: cell-based; settings: 48 h
Protocol: as §2

Bacillus subtilis = assay: microbe, parasite or virus in culture; type: cell-based; settings: 48 h
Protocol: as §2

## CC[C@H](C)[C@H](NC(=O)[C@H](CC(C)C)NC(=O)[C@H](CCCCN)NC(=O)[C@H](CC(C)C)NC(=O)[C@@H](N)CCSC)C(=O)N[C@@H](Cc1ccccc1)C(=O)N[C@@H](CC(C)C)C(=O)N[C@@H](Cc1c[nH]cn1)C(=O)N[C@@H](CCCNC(=N)N)C(=O)N[C@@H](CC(C)C)C(=O)N[C@@H](CCCCN)C(=O)N[C@@H](CCCNC(=N)N)C(=O)N[C@@H](CCSC)C(=O)N[C@@H](CCCNC(=N)N)C(=O)N[C@@H](CCCCN)C(=O)N[C@@H](CCCNC(=N)N)C(=O)N[C@@H](CC(C)C)C(=O)N[C@H](CCCCN)C(=O)N[C@@H](CCCNC(=N)N)C(=O)N[C@@H](CCCCN)C(=O)O [SR-0379] (H-MLKLIFLHRLKRMRKRL[dK]RK-OH)
Candida krusei
  MIC Candida krusei: 32 µg/mL (≈ 12 µM)
[1]; human serum (pool of 5 men and 5 women) 300 μL
  Stability in human serum: significantly improved
[1]; rat serum 300 μL
  Stability in rat serum: significantly improved
Micrococcus luteus
  MIC Micrococcus luteus: 2 µg/mL (≈ 0.75 µM)
S. aureus (ATCC29213)
  MIC S. aureus (ATCC29213): 16 µg/mL (≈ 6 µM)
Salmonella Enteritidis
  MIC Salmonella Enteritidis: 8 µg/mL (≈ 3 µM)
Alternaria alternata
  MIC Alternaria alternata: 32 µg/mL (≈ 12 µM)
[2]
  MIC Pseudomonas aeruginosa, Carbapenem-resistant: 16 to 64 µg/mL
Acinetobacter baumannii
  MIC Acinetobacter baumannii: 8 µg/mL (≈ 3 µM)
Salmonella Typhimurium
  MIC Salmonella Typhimurium: 8 µg/mL (≈ 3 µM)
Trichophyton rubrum
  MIC Trichophyton rubrum: 64 µg/mL (≈ 24 µM)
Bacteroides fragilis
  MIC Bacteroides fragilis: 32 µg/mL (≈ 12 µM)
E. coli (ATCC25922)
  MIC E. coli (ATCC25922): 8 µg/mL (≈ 3 µM)
Fusarium solani
  MIC Fusarium solani: 8 µg/mL (≈ 3 µM)
[3]
  MIC Trichophyton mentagrophytes: 32 µg/mL (≈ 12 µM)
[4]
  MIC Acinetobacter baumannii, Multidrug-resistant: 16 µg/mL (≈ 6 µM)
Bacillus subtilis
  MIC Bacillus subtilis: 2 µg/mL (≈ 0.75 µM)
